Source: patent publication US20110118288A1, “PHARMACEUTICAL COMPOSITION FOR TREATING HYPERTENSION AND METABOLIC SYNDROME AND USE THEREOF” (priority 2008, published 2011)

Key:
[1] = test system: spontaneously hypertensive rats; experiment: Carotid intima-media thickness in spontaneously hypertensive rats; format: in vivo, rat; settings: SHR carotid artery, high sugar and high fat diets, intragastric once every day for six months
Description: Each group was given intragastric administration once every day and fed with high sugar and high fat diets for six months. During the experiment, the diet, survival status and behaviors of the animals were recorded, and the animals were weighed once every day and the doses of administration were adjusted according to the body weights. After the animal was anesthetized and fixed, Even's blue (60 mg/kg) dye was injected via a femoral artery. After 30 minutes, myocardial perfusion was performed with 0.9% physiological saline as a perfusate at a perfusion pressure of 13.3 kPa until the effluent became clear. Then, 4% paraformaldehyde in physiological saline was perfused for 10 minutes for in situ fixation (the perfusion pressure was the same as above). The section of Even's blue-stained carotid artery was taken and further fixed with formalin solution, and three parts, i.e. the front, the middle and the rear parts, respectively, were sampled and embedded in paraffin, and then sliced discontinuously to obtain 8 to 10 layers, which were stained with HE. Three vascular sections were randomly selected and input into a computer image processing system so as to perform a computerized image measurement, thereby calculating the intima-media thickness.

[2] = test system: spontaneously hypertensive rats; experiment: Urinary microalbumin (bromophenol blue absorbance) in spontaneously hypertensive rats; format: in vivo, rat; settings: SHR, high sugar and high fat diets, intragastric once every day, twelve-hour overnight urine; time point not given in table
Description: Model control group: intragastric administration of same volume of physiological saline; […] L group: 5 mg/(kg·d) of losartan; R group: 1 mg/(kg·d) of rosuvastatin group; L+R group: 5 mg/(kg·d) of losartan+1 mg/(kg·d) of rosuvastatin calcium; P+R group: 1.5 mg/(kg·d) of pioglitazone+1 mg/(kg·d) of rosuvastatin calcium; L+P group: 5 mg/(kg·d) of losartan+1.5 mg/(kg·d) of pioglitazone; […] Each group was given intragastric administration once every day and fed with high sugar and high fat diets for six months. During the experiment, the diet, survival status and behaviors of the animals were recorded, and the animals were weighed once every day and the doses of administration were adjusted according to the body weights. 1. 10% (v/v) glacial acetic acid solution (pH 2.8). 2. 0.303 mol/L glycine-glacial acetic acid buffer solution (pH 3.0): 22.72 g of glycine was weighed and diluted with 10% glacial acetic acid solution to 1000 ml, to which 100 mg of NaN3 was added. The buffer solution can be kept for one year at room temperature after sealed. 3. Bromophenol blue (1.924 mmol/L) stock solution: 257.36 mg of BPB was precisely weighed and dissolved to 200 ml with absolute ethanol. The stock solution can be kept for one year in a refrigerator at 4° C. 4. Bromophenol blue (0.231 mmol/L) developing agent: to 60 ml of BPB stock solution, 2.5 ml Triton X-100 was added, and then diluted to 500 ml with glycine-glacial acetic acid buffer solution. The developing agent can be kept for one year at room temperature after sealed. Collection and detection of samples: rats were taken out and fed in a metabolic cage at the fourth week, the eighth week, the twelfth week and the sixteenth week, respectively, and twelve-hour overnight urinary collection was performed. Urinary amounts were precisely recorded. 4 ml of urine was sampled, treated with sodium azide, and centrifuged at 2000 r/min for 10 min.

[3] = test system: spontaneously hypertensive rats; experiment: Cardiac hypertrophy (left ventricular weight/body weight) in spontaneously hypertensive rats; format: in vivo, rat; settings: SHR, after ten weeks of intragastric administration once every day
Description: Each group was given intragastric administration once every day for ten weeks. During the experiment, the diet, survival status and behaviors of the animals were recorded, and the animals were weighed once every day and the doses of administration were adjusted according to the body weights. Animals were sacrificed after ten weeks, and their hearts were taken out to determine the weights of left ventricles and calculate left ventricular indexes. After being sacrificed with 10% potassium chloride (2 mmol/L, 1 ml/rat), the rats were weighed. Heart was taken out and aortas and connective tissues outside of the heart were removed. The heart was cleaned by washing, dried with a filter paper, and weighed. The left ventricular was weighed after the atria were removed, and a ratio of left ventricular weight to body weight was calculated.

[4] = test system: spontaneously hypertensive rats; experiment: Tail arterial blood pressure of conscious spontaneously hypertensive rats; format: in vivo, rat; settings: for blood pressure, after treatment, eighth week / blood pressure, after treatment, fifth week / blood pressure, after treatment, first week / blood pressure, after treatment, third week: SHR, intragastric once every day, 2-5 h after administration; for blood pressure, before treatment: spontaneously hypertensive rats, baseline before treatment, n = 11
Description: Model control group: intragastric administration of same volume of physiological saline; P group: 0.5 mg/(kg·d) of pioglitazone; L group: 5 mg/(kg·d) of losartan; R group: 0.5 mg/(kg·d) of rosuvastatin calcium; L+R group: 5 mg/(kg·d) of losartan+0.5 mg/(kg·d) of rosuvastatin calcium; P+R group: 0.5 mg/(kg·d) of pioglitazone+0.5 mg/(kg·d) of rosuvastatin calcium; L+P group: 5 mg/(kg·d) of losartan+0.5 mg/(kg·d) of pioglitazone; […] Each group was given intragastric administration once every day for ten weeks. During the experiment, the diet, survival status and behaviors of the animals were recorded, and the animals were weighed once every day and the doses of administration were adjusted according to the body weights. Animals were sacrificed after ten weeks, and their hearts were taken out to determine the weights of left ventricles and calculate left ventricular indexes. Temperature was controlled between 18° C. and 22° C., humidity was controlled between 45% and 65%, and indoor natural light was used. Tail arterial blood pressure of a conscious rat was measured with Intelligent Non-invasive Blood Pressure Monitor BP-2006A (provided by Beijing Softron Co., Ltd.). Blood pressures were measured five times between two and five hours after intragastric administration in the first week, the third week, the fifth week and the eighth week, respectively. The average value of the blood pressures was used as the blood pressure of the sample.

[5] = test system: metabolic syndrome patients; experiment: Treatment of patients suffered from metabolic syndrome (FBG, FINS, HbAlC, TC/HDLC, Fg); format: in vivo, human
Description: Sixth-four metabolic syndrome patients were selected from those received treatment in Linyi People's Hospital from March 2007 to June 2008, and randomly divided into a control group and an experimental group. Control group: twenty-one males and eleven females, whose ages were between 61 and 72 and whose body mass indexes (BMI) were between 26 and 30; Experimental group: nineteen males and thirteen females, whose ages were between 62 and 70 and whose body mass indexes (BMI) were between 25.5 and 31; Before the treatment, all patients were subjected to blood lipids (including total cholesterol (TC), high-density lipid cholesterol (HDLC)) analysis, and detection of glycated hemoglobin (HbAlC), fasting blood glucose (FBG), fasting insulin (FINS) and fibrinogen (Fg). […] After eight weeks of continuous treatment, all of the above parameters were re-determined, in which blood glucose was determined with hexokinase method, blood lipid was determined with esterase method, fibrinogen was determined with coagulation method and chromogenic substrate assay, HbAlC was determined with chromatography, and fasting insulin was determined with chemiluminescence immunoassay. Statistical analysis: SPSS software was employed, and test of significance was performed by using a paired sample t test.

[6] = once every day, after eight weeks

Compound | Maximum intima thickness [1] | Ratio of intima to media thickness [1] | urinary microalbumin, Absorbance A (600 nm) [2] | Left ventricular weight [3] | Left ventricular weight/body weight (×10^-3) [3] | blood pressure, after treatment, eighth week [4] | blood pressure, after treatment, fifth week [4] | blood pressure, after treatment, first week [4] | blood pressure, after treatment, third week [4] | blood pressure, before treatment [4] | FBG, before treatment ([5]; before treatment) | FINS, before treatment ([5]; before treatment) | Fg, before treatment ([5]; before treatment) | HbAlC, before treatment ([5]; before treatment) | TC/HDLC, before treatment ([5]; before treatment) | FBG, after treatment [5, 6] | FINS, after treatment [5, 6] | Fg, after treatment [5, 6] | HbAlC, after treatment [5, 6] | TC/HDLC, after treatment [5, 6]
CCCCc1nc(Cl)c(CO)n1Cc1ccc(-c2ccccc2-c2nn[nH]n2)cc1 [L group, losartan] | 0.0926 mm | 1.8055 | 0.6132 | 0.873 g | 2.90 ×10^-3 | 156 mmHg | 155 mmHg | 168 mmHg | 162 mmHg | 171 mmHg | – | – | – | – | – | – | – | – | – | –
CCc1ccc(CCOc2ccc(CC3SC(=O)NC3=O)cc2)nc1 (stereo not shown) [P group, pioglitazone] | 0.0958 mm | 1.8325 | 0.5714 | 0.986 g | 3.30 ×10^-3 | 172 mmHg | 171 mmHg | 172 mmHg | 168 mmHg | 172 mmHg | 7.11 mmol/L | 31.5 mlU/L | 426.3 mg/dL | 6.92% | 4.25 | 6.69 mmol/L | 24.36 mlU/L | 390.8 mg/dL | 6.33% | 3.84
CC(C)c1nc(N(C)S(C)(=O)=O)nc(-c2ccc(F)cc2)c1/C=C/[C@@H](O)C[C@@H](O)CC(=O)O [R group, rosuvastatin calcium] | 0.1153 mm | 2.0754 | 0.5672 | 0.960 g | 3.16 ×10^-3 | 169 mmHg | 170 mmHg | 166 mmHg | 168 mmHg | 168 mmHg | – | – | – | – | – | – | – | – | – | –
